Test results as given in patent US7601856B2 (Wyeth, priority 2006, dated 2009).

system: isolated rat bladder strips; assay: Inhibition of contractions of isolated rat bladder strips; settings: 0.5 h
Method: The compounds of the examples were tested to determine their ability to inhibit contractions of isolated rat bladder strips. See Foster, C. […] Malmgren, A. et al. J.Urol.
Male Sprague-Dawley rats (150-200 g) were obtained from ACE animal suppliers. Animals were allowed free access to food and water.
Animals were euthanized by CO2 asphyxiation followed by a bilateral thoracotomy. […] The bladder was opened and then cut into strips 1-2 mm in width and 7-10 mm in length. The strips were subsequently suspended in a 10 ml tissue bath under an initial resting tension of 1.5 g. The strips were held in place by two surgical clips one of which was attached to a fixed hook while the other was attached to an isometric force transducer. […] The carbachol was then washed out and the tissue allowed to relax to its resting level of activity. Following a further 30 minute period of recovery an additional 15 mM KCl were introduced into the tissue bath. […] Following stabilization of this enhanced level of contractile activity, incremental increases in the concentration of test compound or vehicle were introduced into the tissue bath. Contractile activity was measured for each compound or vehicle concentration during the last minute of a 30 minute challenge.
Isometric force developed by the bladder strips was measured using a force transducer and recorded on a polygraph. Contractile activity was assessed by measuring either the average amplitude of the contractions (baseline to peak force) occurring during a one minute period or, preferably, by integrating the contractile activity with respect to time (one minute measuring period).
The percentage inhibition of contractile activity evoked by each concentration of a given test compounds was used to generate a concentration-response curve.

| SMILES | IC50 [nM] |
| --- | --- |
| CN(C)CCN(C)CC(=O)Nc1ccc2oc3c(c2c1)CCCCC3 [Example 41] | 1000 to 5000 |
| O=C(CN1CCOCC1)Nc1ccc2oc3c(c2c1)CCCCC3 [Example 40, 2-MORPHOLIN-4-YL-N-7,8,9,10-TETRAHYDRO-6H-BENZO[b]CYCLOHEPTA[D]FURAN-2-YLACETAMIDE] | 1000 to 3000 |
| O=C(CN1CCN(c2ncccn2)CC1)Nc1ccc2oc3c(c2c1)CCCCC3 [Example 50, 2-(4-PYRIMIDIN-2-YLPIPERAZIN-1-YL)-N-7,8,9,10-TETRAHYDRO-6H-BENZO[B]CYCLOHEPTA[D]FURAN-2-YLACETAMIDE] | 3000 to 5000 |
| CCN(C)CC(=O)Nc1ccc2oc3c(c2c1)CCCCC3 [Example 46, N^2-ETHYL-N^2-METHYL-N′-7,8,9,10-TETRAHYDRO-6H-BENZO[B]CYCLOHEPTA[D]FURAN-2-YLGLYCINAMIDE] | 7000 to 9000 |
| CN1CCN(CC(=O)Nc2ccc3oc4c(c3c2)CCCCC4)CC1 [Example 44, 2-(4-METHYLPIPERAZIN-1-YL)-N-7,8,9,10-TETRAHYDRO-6H-BENZO[B]CYCLOHEPTA[D]FURAN-2-YLACETAMIDE] | 1000 to 3000 |
| O=C(CCl)Nc1ccc2oc3c(c2c1)CCCCCC3 [Example 79, 2-CHLORO-N-6,7,8,9,10,11-HEXAHYDROBENZO[B]CYCLOOCTA[D]FURAN-2-YLACETAMIDE] | 200 to 400 |

same assay, conditions: 0.5 h, concentration eliciting 50% inhibition of pre-drug contractile activity, strips stimulated with additional 15 mM KCl, 30 minute challenge per concentration, read-out: IC50

| SMILES | IC50 [nM] |
| --- | --- |
| O=C(Nc1ccc2oc3c(c2c1)CCCCCC3)N1CCOCC1 [Example 86, N-(6,7,8,9,10,11-HEXAHYDROBENZO[B]CYCLOOCTA[D]FURAN-2-YL)MORPHOLINE-4-CARBOXAMIDE] | 7000 to 9000 |
| O=C(CCc1ccccc1)Nc1ccc2oc3c(c2c1)CCCCC3 [Example 36, 3-PHENYL-N-(7,8,9,10-TETRAHYDRO-6H-BENZO[B]CYCLOHEPTA[D]FURAN-2-YL)PROPANAMIDE] | 3000 to 5000 |
| O=C(Nc1ccc2oc3c(c2c1)CCCCCC3)c1ccco1 [Example 74, N-(6,7,8,9,10,11-HEXAHYDROBENZO[B]CYCLOOCTA[D]FURAN-2-YL)-2-FURAMIDE] | 10000 to 15000 |
| CC(=O)N1CCC[C@H]1C(=O)Nc1ccc2oc3c(c2c1)CCCCC3 [Example 60, 1-ACETYL-N-7,8,9,10-TETRAHYDRO-6H-BENZO[B]CYCLOHEPTA[D]FURAN-2-YL-L-PROLINAMIDE] | 1300 to 2500 |
| CC(C)(C)c1ccc(C(=O)Nc2ccc3oc4c(c3c2)CCCCC4)cc1 [Example 33, 4-TERT-BUTYL-N-(7,8,9,10-TETRAHYDRO-6H-BENZO[B]CYCLOHEPTA[D]FURAN-2-YL)BENZAMIDE] | 2000 to 3000 |
| COc1cccc(OC)c1C(=O)Nc1ccc2oc3c(c2c1)CCCCCC3 [Example 76, N-(6,7,8,9,10,11-HEXAHYDROBENZO[B]CYCLOOCTA[D]FURAN-2-YL)-2,6-DIMETHOXYBENZAMIDE] | 7000 to 14000 |
| O=C(Nc1ccc2oc3c(c2c1)CCCCCC3)c1cccs1 [Example 67, N-(6,7,8,9,10,11-HEXAHYDROBENZO[B]CYCLOOCTA[D]FURAN-2-YL)THIOPHENE-2-CARBOXAMIDE] | 600 to 800 |
| C[C@H](NC(=O)OC(C)(C)C)C(=O)Nc1ccc2oc3c(c2c1)CCCCC3 [Example 56, TERT-BUTYL [(1S)-1-METHYL-2-OXO-2-(7,8,9,10-TETRAHYDRO-6H-BENZO[B]CYCLOHEPTA[D]FURAN-2-YLAMINO)ETHYL]CARBAMATE] | 300 to 600 |
| CCCCCC(=O)Nc1ccc2oc3c(c2c1)CCCC3 [Example 22, N-(6,7,8,9-TETRAHYDRODIBENZO[B,D]FURAN-2-YL)HEXANAMIDE] | 1000 to 3000 |
| C[C@@H](OCc1ccccc1)C(NC(=O)OC(C)(C)C)C(=O)Nc1ccc2oc3c(c2c1)CCCCC3 (stereo in doubt) [Example 59, TERT-BUTYL {(1R,2R)-2-(BENZYLOXY)-1-[(7,8,9,10-TETRAHYDRO-6H-BENZO[B]CYCLOHEPTA[D]FURAN-2-YLAMINO)CARBONYL]PROPYL}CARBAMATE] | 1500 to 2000 |
| CC(C)(C)OC(=O)N1CCC[C@H]1C(=O)Nc1ccc2oc3c(c2c1)CCCCC3 [Example 54, TERT-BUTYL (2S)-2-[(7,8,9,10-TETRAHYDRO-6H-BENZO[B]CYCLOHEPTA[D]FURAN-2-YLAMINO)CARBONYL]PYRROLIDINE-1-CARBOXYLATE] | 6000 to 8000 |
| CCCCC(=O)Nc1ccc2oc3c(c2c1)CCCCC3 [Example 31, N-(7,8,9,10-TETRAHYDRO-6H-BENZO[B]CYCLOHEPTA[d]FURAN-2-YL)PENTANAMIDE] | 3000 to 5000 |
| CCCCCC(=O)Nc1ccc2oc3c(c2c1)CCCCC3 [Example 35, N-(7,8,9,10-TETRAHYDRO-6H-BENZO[B]CYCLOHEPTA[D]FURAN-2-YL)HEXANAMIDE] | 6000 to 9000 |

same assay, conditions: maximum percentage inhibition of contractile activity, 30 μM, strips stimulated with additional 15 mM KCl, read-out: % Inhibition of Contractility @ 30 μM

| SMILES | inhibition at 30 µM [%] |
| --- | --- |
| Cc1cccc(C(=O)Nc2ccc3oc4c(c3c2)CCCCCC4)c1 [Example 69, N-(6,7,8,9,10,11-HEXAHYDROBENZO[B]CYCLOOCTA[D]FURAN-2-YL)-3-METHYLBENZAMIDE] | 10 to 20 |
| O=C(Nc1ccc2oc3c(c2c1)CCCCC3)[C@@H]1CCCN1 [Example 57, N-7,8,9,10-TETRAHYDRO-6H-BENZO[B]CYCLOHEPTA[D]FURAN-2-YL-L-PROLINAMIDE] | 20 to 30 |
| CC(C)OC(=O)Nc1ccc2oc3c(c2c1)CCCCCC3 [Example 88, ISOPROPYL 6,7,8,9,10,11-HEXAHYDROBENZO[B]CYCLOOCTA[D]FURAN-2-YLCARBAMATE] | 20 to 30 |
| O=C(Nc1ccc2oc3c(c2c1)CCCC3)c1ccc(F)cc1 [Example 19, 4-FLUORO-N-(6,7,8,9-TETRAHYDRODIBENZO[B,D]FURAN-2-YL)BENZAMIDE] | 25 to 35 |
| O=C(Nc1ccc2oc3c(c2c1)CCCCC3)c1ccc(C(F)(F)F)cc1 [Example 38, N-7,8,9,10-TETRAHYDRO-6H-BENZO[B]CYCLOHEPTA[D]FURAN-2-yl-4-(TRIFLUOROMETHYL)BENZAMIDE] | 5 to 10 |
| CC(C)(C)c1ccc(C(=O)Nc2ccc3oc4c(c3c2)CCCCCC4)cc1 [Example 68, 4-TERT-BUTYL-N-(6,7,8,9,10,11-HEXAHYDROBENZO[B]CYCLOOCTA[D]FURAN-2-YL)BENZAMIDE] | 20 to 40 |
| O=C(CO)Nc1ccc2oc3c(c2c1)CCCCCC3 [Example 80, N-6,7,8,9,10,11-HEXAHYDROBENZO[B]CYCLOOCTA[D]FURAN-2-YL-2-HYDROXYACETAMIDE] | 30 to 50 |
| CC(CC(=O)Nc1ccc2oc3c(c2c1)CCCCCC3)CC(C)(C)C (stereo not drawn) [Example 66, N-(6,7,8,9,10,11-HEXAHYDROBENZO[B]CYCLOOCTA[D]FURAN-2-YL)-3,5,5-TRIMETHYLHEXANAMIDE] | 5 to 20 |
| O=C(Nc1ccc2oc3c(c2c1)CCCC3)c1ccc(C(F)(F)F)cc1 [Example 20, N-(6,7,8,9-TETRAHYDRODIBENZO[B,D]FURAN-2-YL)-4-(TRIFLUOROMETHYL)BENZAMIDE] | 15 to 40 |
| O=C(CCc1ccccc1)Nc1ccc2oc3c(c2c1)CCCC3 [Example 21, 3-PHENYL-N-(6,7,8,9-TETRAHYDRODIBENZO[B,D]FURAN-2-YL)PROPANAMIDE] | 10 to 30 |
| O=C(Nc1ccc2oc3c(c2c1)CCCC3)c1ccc(Cl)cc1 [Example 17, 4-CHLORO-N-(6,7,8,9-TETRAHYDRO-DIBENZOFURAN-2-YL)-BENZAMIDE] | 25 to 30 |

same assay, conditions: read-out: % Inhibition of Contractility @ 30 μM

| SMILES | inhibition at 30 µM [%] |
| --- | --- |
| CC(C)(C)OCC(=O)Nc1ccc2oc3c(c2c1)CCCCC3 [Example 48, 2-TERT-BUTOXY-N-7,8,9,10-TETRAHYDRO-6H-BENZO[B]CYCLOHEPTA[D]FURAN-2-YLACETAMIDE] | 10 to 15 |
| CN(CCO)CC(=O)Nc1ccc2oc3c(c2c1)CCCCC3 [Example 47, N^2-(2-HYDROXYETHYL)-N^2-METHYL-N′-7,8,9,10-TETRAHYDRO-6H-BENZO[B]CYCLOHEPTA[D]FURAN-2-YLGLYCINAMIDE] | 10 |
| CCCCC(=O)Nc1ccc2oc3c(c2c1)CCCCCC3 [Example 81, N-6,7,8,9,10,11-HEXAHYDROBENZO[B]CYCLOOCTA[D]FURAN-2-YLPENTANAMIDE] | 10 to 30 |
| O=C(Cc1ccccc1)Nc1ccc2oc3c(c2c1)CCCCCC3 [Example 75, N-(6,7,8,9,10,11-HEXAHYDROBENZO[B]CYCLOOCTA[D]FURAN-2-YL)-2-PHENYLACETAMIDE] | 30 to 40 |
| O=C(CCl)Nc1ccc2oc3c(c2c1)CCCCC3 [Example 39, 2-CHLORO-N-7,8,9,10-TETRAHYDRO-6H-BENZO[B]CYCLOHEPTA[D]FURAN-2-YLACETAMIDE] | 15 to 35 |
| O=C(Cc1cccs1)Nc1ccc2oc3c(c2c1)CCCCC3 [Example 37, N-(7,8,9,10-TETRAHYDRO-6H-BENZO[B]CYCLOHEPTA[D]FURAN-2-YL)-2-THIEN-2-YLACETAMIDE] | 20 to 40 |
| O=C(COCCO)Nc1ccc2oc3c(c2c1)CCCCC3 [Example 45, 2-(2-HYDROXYETHOXY)-N-7,8,9,10-TETRAHYDRO-6H-BENZO[B]CYCLOHEPTA[D]FURAN-2-YLACETAMIDE] | 15 to 25 |
| CN(CCc1ccccn1)CC(=O)Nc1ccc2oc3c(c2c1)CCCCC3 [Example 42, N^2-METHYL-N^2-(2-PYRIDIN-2-YLETHYL)-N^1-7,8,9,10-TETRAHYDRO-6H-BENZO[B]CYCLOHEPTA[D]FURAN-2-YLGLYCINAMIDE] | 30 to 40 |
| NCC(=O)Nc1ccc2oc3c(c2c1)CCCCC3 [Example 52, N^1-7,8,9,10-TETRAHYDRO-6H-BENZO[B]CYCLOHEPTA[D]FURAN-2-YLGLYCINAMIDE] | 20 to 30 |
